Test [1] is described as follows: Anti-ice nucleation active performance (supercooling acceleration), droplet-freezing method of Vali, silver iodide. Type of test: physicochemical. To be noted: for anti-ice nucleation activity (in words): 2.0 mM aqueous solution; for improvement in anti-ice nucleation activity level of tri-peptide compared to the mono-amino acid: 2.0 mM. On the procedure:
Nine hundred microliters of an aqueous solution was prepared by dissolving silver iodide in ultra-pure water to a silver iodide concentration of 1.0 mg/mL.
(§1) A blank sample was prepared by mixing 100 μL of ultra-pure water with 900 μL of the aqueous solution in which silver iodide was dissolved.
The anti-ice nucleation active performance (supercooling acceleration performance) was measured by using the droplet-freezing method of Vali. More specifically, in accordance with the droplet-freezing method of Vali (FIG. 1), an aluminum film was placed on the copper plate of a cold plate chiller (CoolAce CCA-1000, Tokyo Rikakikai Co., Ltd.), and the film was coated with a silicone oil suspension diluted with acetone and chloroform (a solution of acetone:chloroform=1:2). Then, each sample for evaluation or the blank sample was dropped (10 μL each) on 30 points of the surface, the temperature was decreased at a rate of 1.0° C./min, and the temperature at which 50% of the 30 droplets were frozen was considered to be T50.
The droplet-freezing temperature of each sample was referred to as SampleT50, and the droplet-freezing temperature of the blank sample was referred to as BlankT50. Then, the anti-ice nucleation activity level ΔT50 (° C.) was calculated by the following formula:
ΔT50 (° C.)=BlankT50−SampleT50 Formula: […]
(§2) The results are average values of the results of the test performed three times.
as §1
Each sample for evaluation was prepared by mixing 100 μL of the aqueous solutions of Examples 2 and 11 and Comparative Example 10 with 900 μL of the aqueous solution in which silver iodide was dissolved. A blank sample was prepared by mixing 100 μL of ultra-pure water with 900 μL of the aqueous solution in which silver iodide was dissolved.
as §2

Test [2] is described as follows: State of tofu after freezing and thawing, and breaking load of tofu. Particulars: frozen in liquid nitrogen. On the procedure: Silken tofu (1.5 mm (length)×1.5 mm (width)×1.5 mm (height)) was immersed in the solution of Comparative Example 9 (water, blank) or Example 1 (tyrosine dimer) overnight. Thereafter, the tofu was taken out of the solution, the moisture was wiped off, and then the tofu was wrapped with wrap (plastic wrap). The tofu wrapped in plastic wrap was immersed in liquid nitrogen to be quickly frozen. The frozen tofu was then slowly thawed (warmed at 25° C.) or quickly thawed (warmed at 60° C.). […] The breaking load (N) of tofu was measured by a creep meter (RE2-33005C, Yamaden, Co., Ltd.).

A further test is described as follows: Cooling curve of tofu. To be noted: for anti-ice nucleation activity towards tofu (in words): cooling curve compared to Comparative Example 9; for Freezing onset temperature / Temperature at which tofu was completely frozen / Time taken for tofu to be completely frozen: tofu immersed overnight, cooled in freezer at −20° C. On the procedure:
Silken tofu (1.5 mm (length)×1.5 mm (width)×1.5 mm (height)) that was immersed overnight in the solution of Comparative Example 9 (blank), Example 1 (tyrosine dimer), or Example 2 (tyrosine trimer) was cooled.
A thermocouple thermometer (Horiba) was inserted in tofu, and the temperature was measured every 20 seconds in a freezer at −20° C. A cooling curve was then obtained based on the relationship between the temperature (° C.) and the cooling time (in seconds) (FIG. 9). Table 5 below and FIG. 9 show the temperature at which the tofu began to freeze (freezing onset temperature), the temperature at which the tofu was completely frozen, and the time taken for the tofu to be completely frozen.

A further test has as its system Pseudomonas fluorescens. Kind of test: Effect on different kind of ice nucleation active substance, droplet-freezing method of Vali. To be noted: towards Pseudomonas fluorescens in place of silver iodide; average of three tests. It is filed as physicochemical. On the procedure: The anti-ice nucleation active performance (supercooling acceleration performance) was measured by using the droplet-freezing method of Vali. More specifically, in accordance with the droplet-freezing method of Vali (FIG. 1), an aluminum film was placed on the copper plate of a cold plate chiller (CoolAce CCA-1000, Tokyo Rikakikai Co., Ltd.), and the film was coated with a silicone oil suspension diluted with acetone and chloroform (a solution of acetone:chloroform=1:2). […]
The droplet-freezing temperature of each sample was referred to as SampleT50, and the droplet-freezing temperature of the blank sample was referred to as BlankT50. Then, the anti-ice nucleation activity level ΔT50 (° C.) was calculated by the following formula: […]
A sample for evaluation of Example 1 was prepared in a manner similar to that described in Test Example 1, except that Pseudomonas fluorescens, which is the Pseudomonas bacterium, was used in place of silver iodide, which is an ice nucleation active substance. The anti-ice nucleation active performance (supercooling acceleration performance) was measured by using a test method similar to that described in Test Example 1. […]

Test [3] can be described thus: Anti-ice nucleation activity test with respect to biological material (beef liver). Particulars: 10 μL, final concentration 0.2 mM, dropped on beef liver; blank ultra-pure water. The protocol: Ten microliters of an aqueous solution in which the aqueous solution of the anti-ice nucleation activator of Example 2 (tyrosine trimer) was diluted 10-fold with ultra-pure water (final concentration: 0.2 mM) was added dropwise on a beef liver (1 mm (length)×1 mm (width)×1 mm (height)). As a blank sample, ultra-pure water was used.
The anti-ice nucleation active performance (supercooling acceleration performance) was measured by using a method similar to the droplet-freezing method of Vali described in Test Example 1. The results are average values of the results of the test performed three times.

[4] abbreviates: ΔT50 = BlankT50 − SampleT50, 2.0 mM aqueous solution (100 μL) mixed with 900 μL silver iodide 1.0 mg/mL, average of three tests.

`N[C@@H](Cc1ccc(O)cc1)C(=O)O` [Comparative Example 1, tyrosine, reference compound]: the “anti-ice nucleation activity (in words)” value in test [1] (silver iodide) is “no anti-ice nucleation activity”. In addition, in test [1] (setting [4]), the “Anti-ice nucleation activity level” value was 0.3 °C.

Regarding `N[C@@H](Cc1ccccc1)C(=O)O` [Comparative Example 4, phenylalanine, reference compound], the “Anti-ice nucleation activity level” value in test [1] (setting [4]) came out at 0.5 °C.

Consider `N[C@@H](CO)C(=O)O` [Comparative Example 6, serine, reference compound], for which the “Anti-ice nucleation activity level” value in test [1] (setting [4]) is 0.1 °C.

For `C[C@@H](O)[C@H](N)C(=O)O` [Comparative Example 8, threonine, reference compound], the “Anti-ice nucleation activity level” value in test [1] (setting [4]) was found to be 0.1 °C.

As for “Phe-Phe-Phe [Comparative Example 3, reference compound]”, the “improvement in anti-ice nucleation activity level of tri-peptide compared to the mono-amino acid” value (from here on “improvement … compared to the mono-amino acid”) in test [1] (silver iodide) was “no improvement in the anti-ice nucleation activity level”. In test [1] (setting [4]), the “Anti-ice nucleation activity level” value was 0.3 °C.

For “Ser-Ser-Ser [Comparative Example 5, reference compound]”, the “improvement … compared to the mono-amino acid” value in test [1] (silver iodide) is “no improvement in the anti-ice nucleation activity level”. The “Anti-ice nucleation activity level” value in test [1] (setting [4]) was determined as 0.4 °C.

With “Thr-Thr-Thr [Comparative Example 7, reference compound]”, in test [1] (silver iodide), the “improvement … compared to the mono-amino acid” value is listed as “no improvement in the anti-ice nucleation activity level”. For the same compound, in test [1] (setting [4]), the “Anti-ice nucleation activity level” value is −0.3 °C.

For Tyr-Tyr [Example 1], the “Anti-ice nucleation activity level” value in test [1] (setting [4]) was 2.6 °C. Further, the “cavities in the tofu after thawing” value in test [2] (slow or quick thawing) is “no cavities were formed”. Moreover, in test [2] (tofu immersed overnight, slow thawing (25° C.) and quick thawing (60° C.), compared to Comparative Example 9 (water)), the “breaking load of the tofu” value is “low”. Besides, in the test “Cooling curve of tofu”, the “anti-ice nucleation activity towards tofu (in words)” value is recorded as “exert anti-ice nucleation activity towards tofu”, the Freezing onset temperature is −1.2° ° C, the “Temperature at which tofu was completely frozen” value is reported as −6.8° ° C and the “Time taken for tofu to be completely frozen” value is 1120 s.

Take Tyr-Tyr-Tyr [Example 2]: in test [1] (silver iodide), the “anti-ice nucleation activity (in words)” value is on record as “highest anti-ice nucleation activity level” and the “improvement … compared to the mono-amino acid” value is on record as “significantly improved anti-ice nucleation activity level”. The “anti-ice nucleation active performance (in words)” value in test [1] (all concentration levels within 0.1 to 10.0 mM, silver iodide) is on record as “exhibited anti-ice nucleation active performance”. The “Anti-ice nucleation activity level” value in test [1] (setting [4]) is 10.1 °C. Further, in the test on Pseudomonas fluorescens, the “anti-ice nucleation active performance” value was found to be 1.9 °C. The “Anti-ice nucleation activity level” value in test [3] was 0.6 °C. Also, in “Cooling curve of tofu”, the “anti-ice nucleation activity towards tofu (in words)” value is recorded as “exert anti-ice nucleation activity towards tofu”, the Freezing onset temperature is on record as −0.8° ° C, the “Temperature at which tofu was completely frozen” value is −7.8° ° C and the “Time taken for tofu to be completely frozen” value was 1080 s.

For Tyr-Tyr-Tyr [Example 5], the “Anti-ice nucleation activity level” value in test [1] (tyrosine trimer concentration 0.1 mM, silver iodide 1.0 mg/mL) amounted to 2.3 °C.

Regarding Tyr-Tyr-Tyr [Example 6], the “Anti-ice nucleation activity level” value in test [1] (tyrosine trimer concentration 0.2 mM, silver iodide 1.0 mg/mL) was 3.7 °C.

Consider Tyr-Tyr-Tyr [Example 7], for which, in test [1] (tyrosine trimer concentration 0.5 mM, silver iodide 1.0 mg/mL), the “Anti-ice nucleation activity level” value turned out to be 1.8 °C.

As to Tyr-Tyr-Tyr [Example 8], the “Anti-ice nucleation activity level” value in test [1] (tyrosine trimer concentration 1.0 mM, silver iodide 1.0 mg/mL) came to 5.7 °C.

Take Tyr-Tyr-Tyr [Example 9]: the “Anti-ice nucleation activity level” value in test [1] (tyrosine trimer concentration 5.0 mM, silver iodide 1.0 mg/mL) was determined as 9.2 °C.

For the compound Tyr-Tyr-Tyr [Example 10], the “Anti-ice nucleation activity level” value in test [1] (tyrosine trimer concentration 10.0 mM, silver iodide 1.0 mg/mL) was found to be 9.2 °C.

As for “Tyr-Tyr-Tyr-Tyr (YYYY; printed: Tyr-Tyr-Tyr-Tyr) [Example 3]”, the “Anti-ice nucleation activity level” value in test [1] (setting [4]) was 1.8 °C.

Regarding “Tyr-Tyr-Tyr-Tyr-Tyr (YYYYY; printed: Tyr-Tyr-Tyr-Tyr-Tyr) [Example 4]”, the “Anti-ice nucleation activity level” value in test [1] (setting [4]) came to 1.7 °C.

These data come from US20180153194A1, “AGENT HAVING ANTI-ICE NUCLEATION ACTIVITY” (THE SCHOOL CORPORATION KANSAI UNIVERSITY, priority 2015, published 2018).
